Patent US9534035B2, “Cell lines expressing ENaC and methods using them” (priority 2008, dated 2017)
“Also recorded” adds a separate entry of the source. Like-named read-outs stand apart in the source and are kept apart here.

Assays:
Type in all cases: cell-based
[1] = biological target: T1, ENaC (Homo sapiens, UniProt P37088+P51168+P51170, A314G); experiment: membrane potential assay with stable ENaC cell line (CHO)
T1 construct: expressed in transfected cells
T1 sequence (P37088 1-669): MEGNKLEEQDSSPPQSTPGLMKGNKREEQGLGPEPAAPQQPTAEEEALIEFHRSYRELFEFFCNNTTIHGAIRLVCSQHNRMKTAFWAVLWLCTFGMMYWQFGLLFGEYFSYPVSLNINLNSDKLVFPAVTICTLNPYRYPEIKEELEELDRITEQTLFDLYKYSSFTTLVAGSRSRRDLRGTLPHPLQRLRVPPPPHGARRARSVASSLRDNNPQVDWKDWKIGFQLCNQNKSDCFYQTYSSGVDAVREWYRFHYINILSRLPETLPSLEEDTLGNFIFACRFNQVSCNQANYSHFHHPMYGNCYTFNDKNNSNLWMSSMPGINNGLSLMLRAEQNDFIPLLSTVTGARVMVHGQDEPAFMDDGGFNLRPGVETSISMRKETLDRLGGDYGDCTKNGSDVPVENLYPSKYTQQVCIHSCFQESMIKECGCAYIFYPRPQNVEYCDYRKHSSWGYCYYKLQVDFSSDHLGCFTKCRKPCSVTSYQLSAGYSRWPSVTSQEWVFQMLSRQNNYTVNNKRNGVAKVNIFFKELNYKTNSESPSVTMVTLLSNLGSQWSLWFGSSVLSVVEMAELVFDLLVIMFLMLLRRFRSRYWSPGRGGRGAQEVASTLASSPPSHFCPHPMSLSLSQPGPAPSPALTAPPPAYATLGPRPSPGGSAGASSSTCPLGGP
T1 sequence (P51168 1-640 A314G): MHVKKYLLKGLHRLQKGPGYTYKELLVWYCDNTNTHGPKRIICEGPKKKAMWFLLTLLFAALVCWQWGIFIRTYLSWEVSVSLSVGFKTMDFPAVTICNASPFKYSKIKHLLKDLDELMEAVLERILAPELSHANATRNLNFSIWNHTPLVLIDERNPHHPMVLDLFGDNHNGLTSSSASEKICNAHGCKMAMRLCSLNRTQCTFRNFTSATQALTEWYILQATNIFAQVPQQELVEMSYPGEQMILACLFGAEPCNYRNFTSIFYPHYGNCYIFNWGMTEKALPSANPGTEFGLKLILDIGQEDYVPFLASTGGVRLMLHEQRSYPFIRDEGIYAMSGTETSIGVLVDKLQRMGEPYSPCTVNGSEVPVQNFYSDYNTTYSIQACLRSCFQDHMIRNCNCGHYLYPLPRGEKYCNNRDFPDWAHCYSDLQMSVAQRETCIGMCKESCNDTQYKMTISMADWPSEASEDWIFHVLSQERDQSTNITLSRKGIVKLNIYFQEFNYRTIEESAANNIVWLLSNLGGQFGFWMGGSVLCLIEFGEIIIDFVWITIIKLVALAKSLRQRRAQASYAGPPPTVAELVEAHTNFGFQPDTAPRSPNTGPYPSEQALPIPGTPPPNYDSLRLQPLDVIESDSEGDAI
T1 sequence (P51170 1-649): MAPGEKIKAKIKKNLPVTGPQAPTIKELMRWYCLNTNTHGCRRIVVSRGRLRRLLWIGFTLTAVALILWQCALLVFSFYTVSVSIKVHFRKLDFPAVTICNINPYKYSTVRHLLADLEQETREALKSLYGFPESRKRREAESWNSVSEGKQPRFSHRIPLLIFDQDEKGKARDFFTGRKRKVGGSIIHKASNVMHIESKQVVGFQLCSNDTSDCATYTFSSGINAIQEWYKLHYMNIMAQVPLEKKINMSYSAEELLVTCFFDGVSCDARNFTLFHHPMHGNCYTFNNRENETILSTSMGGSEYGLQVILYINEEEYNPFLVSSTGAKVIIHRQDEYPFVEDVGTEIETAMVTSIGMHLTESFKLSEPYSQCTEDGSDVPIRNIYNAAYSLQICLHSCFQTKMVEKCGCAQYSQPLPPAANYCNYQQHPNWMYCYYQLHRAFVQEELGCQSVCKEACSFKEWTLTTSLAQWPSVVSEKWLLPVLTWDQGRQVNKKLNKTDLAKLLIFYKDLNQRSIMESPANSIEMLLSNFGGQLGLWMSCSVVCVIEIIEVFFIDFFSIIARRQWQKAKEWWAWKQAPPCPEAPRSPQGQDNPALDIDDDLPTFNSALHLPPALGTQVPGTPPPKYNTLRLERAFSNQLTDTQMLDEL
Experimental: The influx of positively-charged sodium ions following the activation of ENaC results in a change in the membrane potential of the cell. To test the activity of ENaC cell lines, we used a membrane potential assay. Such assays are well known in the art. […] Rev. Biophys. […]
The assay plates were maintained in a 37° C. cell culture incubator under 5% CO2 for 19-21 hours. The media was then removed from the assay plates and 20 μl blue membrane potential dye (Molecular Devices Inc) was added and the cells were incubated for 1 hr at room temperature. Test compounds were solubilized in dimethylsulfoxide, diluted in a phosphate buffer and loaded into 384 well polypropylene micro-titer plates. The cell and compound plates were loaded into an FDSS instrument (Hamamatsu) which measures fluorescence (relative fluorescence units) from the plates over time. Fluorescence values were continuously collected from the beginning of the experiment and following addition of test compounds to report baseline values and any changes due to the addition of test compounds. Test compounds in assay buffer or assay buffer alone were then added to the cells and flluorescence values were collected for two minutes.

[2] = tested on: proteolytically cleaved ENaC isoforms; experiment: dose response of inhibitors across trypsin concentrations, membrane potential FDSS protocol; details: FIG. 9, trypsin 0 to 2.25 mg/ml, IC50 plotted against protease concentration
Experimental: We also tested the ability of novel ENaC inhibitors (identified in Example 4) to inhibit proteolytically cleaved ENaC. […] The cells were loaded with membrane potential dye concurrently with the trypsin. […] values were calculated and plotted as a function of protease concentration. […] The different isoforms of ENaC can be pursed in drug discovery to more effectively address the role of the different isoforms of ENaC or the effect or role of proteolysis in disease.

[3] = tested on: proteolyzed ENaC Form 24; experiment: membrane potential assay, trypsin-treated ENaC cells; details: FIG. 8 dose response
Experimental: After a 1 hour incubation with a dye-protease solution at room temperature, the assay was run using the FDSS (Hamamatsu Corporation) as described above.
The experiment was performed using several treatment groups, each receiving a different concentration of trypsin (0 to 3 mg/ml). The cells were incubated with the trypsin for 1 hour at room temperature concurrently with membrane potential dye (standard protocol). […] We further characterized these proteolytically modified isoforms for their ability to conduct sodium.
The isoform specific assay described above was performed with MBP dye solution with trypsin concentrations as listed (Table 2).

[4] = ENaC cell line maintained in 90 mM sodium media, read-out: EC50 (approx)
[5] = ENaC cell line maintained in 150 mM sodium media, read-out: EC50 (approx)
[6] = a cell line of the invention, general statement, read-out: EC50

Structure (SMILES) | EC50 [1, 4] [mM] | EC50 [1, 5] [mM] | EC50 [1, 6] [mM] | inhibition of proteolytically cleaved ENaC isoforms [2] | inhibition of cleaved ENaC form 24 [3] | block of the sodium response [1] | inhibition of uncleaved (non-proteolyzed) ENaC [1] | EC50 ([1]; FIG. 4, read-out: EC50) [mM]
[Cl-].[Li+] [LiCl, lithium chloride] | ~33 | ~82 | ~35 |  |  |  |  | 
N=C(N)NC(=O)c1nc(Cl)c(N)nc1N [Amiloride, amiloride] |  |  |  | inhibit a unique subset of ENaC isoforms | much less effective or not effective; also recorded: not effective to inhibit Form 24 | essentially all of the sodium response was blocked | effectively inhibits; also recorded: almost completely inhibit | 
[Cl-].[Na+] [NaCl, sodium chloride] | ~48 | ~80 | ~50 |  |  |  |  | 48
